Reference: PubChem BioAssay (NCI)
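Tested at 5 concentrations; 48 h exposure; 96-well plates; endpoints linearly interpolated, else capped at highest concentration. The concentration for full growth arrest is given as TGI.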

Experiments:
Assay in all cases: inhibition of tumour cell growth, NCI panel, 48 h
[1] = system: SNB-75 CNS
[2] = system: MALME-3M melanoma
[3] = system: T-47D breast
[4] = system: HOP-92 NSCLC
[5] = system: HL-60(TB) leukemia
[6] = system: KM12 colon
[7] = system: K-562 leukemia
[8] = system: LOX IMVI melanoma
[9] = system: SW-620 colon
[10] = system: SR leukemia
[11] = system: NCI-H23 lung
[12] = system: CCRF-CEM leukemia
[13] = system: SK-MEL-2 melanoma
[14] = system: SF-268 CNS
[15] = system: COLO 205 colon
[16] = system: IGROV1 ovarian
[17] = system: PC-3 prostate
[18] = system: NCI-H226 lung
[19] = system: NCI-H460 lung
[20] = system: SN12C renal

Compound	TGI [1]	TGI [2]	TGI [3]	TGI [4]	TGI [5]	TGI [6]	TGI [7]	TGI [8]	TGI [9]	TGI [10]	TGI [11]	TGI [12]	TGI [13]	TGI [14]	TGI [15]	TGI [16]	TGI [17]	TGI [18]	TGI [19]	TGI [20]
O=C1c2ccccc2C(=O)c2c1ccc1nc3c(nc21)-c1c2ccccc2cc2cccc-3c12	> 31.6 µM	> 100 µM	> 84.2 µM	> 100 µM	> 100 µM	> 94.9 µM	> 100 µM	> 100 µM	> 100 µM	> 100 µM	> 100 µM	> 100 µM	> 100 µM	> 100 µM	> 100 µM	> 57.4 µM	> 100 µM	> 100 µM	> 100 µM	> 100 µM
ClCCN1CCOC1=Nc1ccc2c(c1)CCCC2	28.7 µM	20.8 µM	41.1 µM	30.7 µM	17.1 µM	32 µM	> 100 µM	32.3 µM	61.2 µM	61.1 µM	26.7 µM	35.7 µM	38.1 µM	47.7 µM	25 µM	24.8 µM	23 µM	30.9 µM	61.8 µM	27 µM
O=[N+]([O-])c1ccc2c(c1)Nc1c3ccccc3nc3cccc-2c13	11.7 µM	19.4 µM	43.2 µM	18.8 µM	> 23.1 µM	> 100 µM	> 19.7 µM	6.67 µM	15.8 µM	8.91 µM	> 55.1 µM	6.19 µM	39.5 µM	40.5 µM	19.8 µM	15.4 µM	16.9 µM	> 93.6 µM	12.5 µM	> 80 µM
O=C(O)[C@@H]1CCC(=O)N1C(c1ccc2c(c1)OCO2)c1ccc2c(c1)OCO2	> 100 µM	> 100 µM	> 100 µM	> 100 µM	> 100 µM	> 100 µM	> 100 µM	> 100 µM	> 100 µM	> 100 µM	> 100 µM		> 100 µM	> 100 µM	> 100 µM	> 100 µM	> 100 µM	> 100 µM	> 100 µM	> 100 µM
O=c1ssc(Cl)c1Nc1c(Cl)ssc1=O	46.5 µM	37.7 µM	29.8 µM	41.6 µM	35.1 µM	32.3 µM	15.3 µM	31.2 µM	> 54.4 µM	15 µM	38.8 µM	> 23.5 µM	37.6 µM	51.8 µM	31.5 µM	34.2 µM	37.9 µM	79 µM	34.6 µM	37.9 µM
Nc1ccc(N=Nc2ccc(-c3ccc(O)cc3)cc2)c2ccc(S(=O)(=O)O)cc12	> 100 µM	> 100 µM	> 100 µM	> 100 µM	> 100 µM	> 100 µM	> 100 µM	> 100 µM	> 100 µM	> 100 µM	> 100 µM	> 100 µM	> 100 µM	> 100 µM	> 100 µM	> 100 µM	> 100 µM	> 100 µM	> 100 µM	> 100 µM
CCOC(=O)[C@H](O)[C@@H](O)C(=O)NCc1ccc(C(=O)c2ccccc2)cc1	> 100 µM	> 100 µM	> 100 µM	> 100 µM	> 100 µM	> 100 µM	> 100 µM	> 100 µM	> 100 µM	> 100 µM	> 100 µM	> 100 µM	> 100 µM	> 100 µM	> 100 µM	> 100 µM	> 100 µM	> 100 µM	> 100 µM	> 100 µM
CCOC(=O)CC1(O)CCCCC1(Sc1ccc(C)cc1)Sc1ccc(C)cc1 (stereo not drawn)	> 100 µM	91.8 µM	85.3 µM	> 100 µM	> 100 µM	> 100 µM	> 100 µM	> 100 µM	> 100 µM	> 100 µM	> 100 µM	> 100 µM	65.9 µM	> 100 µM	> 100 µM		> 100 µM	> 100 µM	> 100 µM	> 100 µM
O=C(CC(C(=O)c1ccco1)c1cccs1)c1cccs1 (stereo not drawn)	> 100 µM	> 100 µM	> 100 µM	> 100 µM	60.3 µM	> 100 µM		> 100 µM	> 100 µM	> 100 µM	> 100 µM		> 100 µM	> 100 µM	> 100 µM	> 100 µM	> 100 µM	> 100 µM	> 100 µM	> 100 µM
CCOP(=O)(OCC)C(N)Cc1ccc(OC)c(OC)c1 (stereo not drawn)	> 100 µM	> 100 µM	> 100 µM	> 100 µM	> 100 µM	> 100 µM	> 100 µM		> 100 µM	> 100 µM	> 100 µM	> 100 µM	> 100 µM	> 100 µM	> 100 µM	> 100 µM	> 100 µM	> 100 µM	> 100 µM	> 100 µM
O=C(NNc1ccnc2cc(Cl)ccc12)/C(=C\c1ccccc1Cl)NC(=O)c1ccccc1	> 100 µM	> 100 µM	> 100 µM	> 100 µM	67.8 µM	51.6 µM	> 100 µM	32 µM	> 100 µM	> 100 µM	> 100 µM	> 100 µM	46.1 µM	85.1 µM	81.8 µM	> 100 µM	> 100 µM	67.6 µM	> 100 µM	> 100 µM
O=C(O)NCc1ccccc1 (tested in a mixture with another compound)	60.6 µM	85.9 µM	> 81.6 µM	67.2 µM	48.9 µM	> 80.4 µM	> 77 µM	> 100 µM	> 100 µM	12.8 µM	> 100 µM	51.7 µM	33.7 µM	> 100 µM	43.3 µM	> 100 µM	> 66.4 µM	> 79.7 µM	> 87.1 µM	> 100 µM
O=C1C(c2c(O)[nH]c3ccc(S(=O)(=O)O)cc23)=Nc2ccc(Br)cc21	> 100 µM	> 100 µM	> 100 µM	> 100 µM	> 100 µM	> 100 µM	> 100 µM	> 100 µM	> 100 µM	> 100 µM	> 100 µM	> 100 µM	> 100 µM	> 100 µM	> 100 µM	> 100 µM	> 100 µM	> 100 µM	> 100 µM	> 100 µM
O=C1Nc2ccccc2S/C1=C\c1ccccc1C(F)(F)F	92.3 µM	> 100 µM	> 100 µM	> 100 µM	> 100 µM	> 100 µM		> 100 µM	> 100 µM	> 100 µM		> 100 µM	> 100 µM	> 100 µM	> 100 µM	> 100 µM	> 100 µM	> 100 µM	> 100 µM	> 100 µM
CCCCCC(=O)Nc1nc[nH]c1C(N)=O	> 100 µM	> 100 µM	> 100 µM	> 100 µM	> 100 µM	> 100 µM	> 100 µM	> 100 µM	> 100 µM	> 100 µM	> 100 µM	> 100 µM	> 100 µM	> 100 µM	> 100 µM	> 100 µM	> 100 µM	> 100 µM	> 100 µM	> 100 µM
O=C(O)C1=C(C(=O)O)N(c2ccncc2)C(c2ccco2)=CC1c1ccccc1[N+](=O)[O-] (stereo not drawn)	23.9 µM	22.3 µM	20.1 µM	22.1 µM	7.85 µM	3.36 µM	> 100 µM	4.02 µM	> 27.1 µM	5.68 µM	25.8 µM	> 23.8 µM	37.3 µM	36.1 µM	31.1 µM	4.84 µM	27.9 µM	40.2 µM	28.9 µM	29.1 µM
O=C1Nc2ccccc2S/C1=C\c1cccc(C(F)(F)F)c1	> 100 µM	> 100 µM	> 100 µM	> 100 µM	> 100 µM	> 100 µM	> 100 µM	> 100 µM	> 100 µM	> 100 µM		> 100 µM	> 100 µM	> 100 µM	> 100 µM	> 100 µM	> 100 µM	> 100 µM	> 100 µM	> 100 µM
O=C(CCCN1CCC2(CC1)NC(=O)c1ccccc1O2)c1ccc(F)cc1	> 100 µM	> 100 µM	> 100 µM	> 100 µM	> 100 µM	> 100 µM	> 100 µM	> 100 µM	> 100 µM	> 100 µM	> 100 µM	> 100 µM	> 100 µM	> 100 µM	> 100 µM	> 100 µM	> 100 µM	> 100 µM	> 100 µM	> 100 µM
CC(=O)OC[C@@H]1[C@H]2CC[C@]3(C)[C@@H](OC(C)=O)CC[C@H]3[C@@H]2CC[C@H]1C1(C)SCCS1	> 25 µM	> 25 µM	> 25 µM	> 25 µM	> 25 µM	> 25 µM	> 25 µM	> 25 µM	> 25 µM	> 25 µM	> 25 µM	> 25 µM		> 25 µM	> 25 µM	> 25 µM	> 25 µM	> 25 µM	> 25 µM	> 25 µM
Cc1nn(C(=O)c2ccc(Cl)cc2)c2c1C(c1cccc([N+](=O)[O-])c1)SC(N)=N2 (stereo not drawn)	> 10 µM	> 10 µM	> 10 µM	> 10 µM	> 10 µM	> 10 µM	> 10 µM	> 10 µM	> 10 µM	> 10 µM	> 10 µM	> 10 µM	> 10 µM	> 10 µM	> 10 µM	> 10 µM	> 10 µM	> 10 µM	> 10 µM	> 10 µM
Fc1ccc(OCc2nc3cc(C(F)(F)F)ccc3nc2-c2ccccc2)cc1	> 100 µM	> 100 µM	> 100 µM	> 100 µM	> 89.1 µM	> 100 µM	> 59 µM	> 100 µM	> 100 µM	> 100 µM	> 100 µM	> 93.1 µM	> 100 µM	> 100 µM	> 100 µM	> 100 µM	> 100 µM	> 100 µM	> 100 µM	> 100 µM
CN1C(=O)N/C(=C\c2ccc(S(=O)(=O)N/N=C\C(O)C(O)C(O)CO)cc2)C1=O (stereo not drawn)	> 100 µM	> 100 µM	> 100 µM	> 100 µM	> 100 µM	> 100 µM	> 100 µM	> 100 µM	> 100 µM	> 100 µM	> 100 µM	> 100 µM	> 100 µM	> 100 µM	> 100 µM	> 100 µM	> 100 µM		> 100 µM	> 100 µM
CCOC(=O)C(NCc1ccc2c(c1)OCO2)(NC(=O)c1ccccc1)C(F)(F)F (stereo not drawn)	> 100 µM	> 100 µM	> 100 µM	> 100 µM	82 µM	> 100 µM	> 100 µM	> 100 µM	> 100 µM	> 100 µM	> 100 µM	67.8 µM	> 100 µM	> 100 µM	> 100 µM	> 100 µM	> 100 µM	> 100 µM		> 100 µM
O=C(c1ccc2ccccc2c1)N(Cc1cccnc1)C(=S)N(Cc1cccnc1)C(=O)c1ccc2ccccc2c1	53.5 µM	> 100 µM	65.8 µM	69.7 µM	> 100 µM	40 µM	> 100 µM	37 µM	> 100 µM	> 100 µM	63.7 µM	> 100 µM	75.7 µM	78.5 µM	75.1 µM		> 100 µM	> 100 µM	95.7 µM	> 100 µM
